Source: US20230000869A1, “NOVEL ALK2 INHIBITORS AND METHODS FOR INHIBITING BMP SIGNALING” (The Brigham and Women's Hospital, Inc., priority 2017, published 2023)

Key:
[1] = system: TGFb; assay: Cell assay HTRF TGFb (Table 15); format: cell-based; settings: read-out: HRTF TGFb (IC50)
[2] = biological target: T1, ALK2 (Mus musculus, UniProt P37172); assay: Luciferase reporter gene assay for ALK2 activity (C2C12 BRE-Luc SMAD1/5/8 reporter, BMP6 agonist); format: cell-based; settings: BMP6 50 ng/mL
T1 construct: endogenous in cells; host or cells: C2C12-BRE (BRE-Luc reporter line, G418 selection)
T1 sequence (P37172 21-509): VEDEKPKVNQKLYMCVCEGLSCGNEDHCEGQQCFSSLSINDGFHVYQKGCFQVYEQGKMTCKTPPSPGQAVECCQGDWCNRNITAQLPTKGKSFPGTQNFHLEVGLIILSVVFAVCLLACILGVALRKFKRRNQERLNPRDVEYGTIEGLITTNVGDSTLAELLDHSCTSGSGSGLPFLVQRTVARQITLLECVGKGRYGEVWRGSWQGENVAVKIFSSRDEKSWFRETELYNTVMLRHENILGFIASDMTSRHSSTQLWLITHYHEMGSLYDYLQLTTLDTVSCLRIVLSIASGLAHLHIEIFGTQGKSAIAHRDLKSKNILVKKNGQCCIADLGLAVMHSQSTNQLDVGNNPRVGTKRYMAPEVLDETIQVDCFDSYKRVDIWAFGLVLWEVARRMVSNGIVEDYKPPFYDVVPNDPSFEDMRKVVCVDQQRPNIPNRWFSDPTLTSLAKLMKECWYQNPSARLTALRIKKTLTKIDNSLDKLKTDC
In short: (§1)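 TGFβ activity was measured in HEK293T SBE-Luc cells stimulated with 5 ng/mL TGFβ, at compound 10000-30 nM final. ALK2 activity was measured in C2C12 BRE-Luc cells stimulated with 50 ng/mL BMP6, at compound 1000-0.3 nM final. Compound was preincubated 45 min in 2% FBS medium; after ≥18 h agonist exposure, luminescence was read and inhibition expressed as % signal loss versus background-subtracted agonist controls.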

[3] = system: TGFβ; assay: Luciferase reporter gene assay for TGFβ activity (HEK293T SBE-Luc SMAD2/3 reporter, TGFβ agonist); format: cell-based; settings: TGFβ 5 ng/mL
In short: as §1

[4] = biological target: ACVR2B (Homo sapiens, UniProt Q13705); assay: LanthaScreen Eu kinase binding assay, BMP type II receptor ACVR2B; settings: 10-point titration from 10 μM, 3-fold serial dilution, Life Technologies
Method: (§2) Kinase Profiling BMP Type II Receptor Experimental Procedure (Life Technologies, 5225 Vernona Road, Madison, Wis. 53744)
(§3) The measurement of each compound's half maximal inhibitory concentration (IC50) for BMP type II receptors (ACVR2A, ACVR2B, BMPR2 and TGFbR2) was carried out at Life Technologies by using its 10-point titration (starting concentration: 10 μM with 3-fold serial dilution) LanthaScreen™ biochemical kinase assay protocol. For the detailed description of LanthaScreen™ Eu kinase binding assay condition, please see: https://www.thermofisher.com/us/en/home/industrial/pharma-biopharma/drug-discovery-development/target-and-lead-identification-and-validation/kinasebiology/kinase-activity-assays/lanthascreentm-eu-kinas e-binding-assay/lanthascreen-eu-kinase-binding-assay-validation-table.html.

[5] = biological target: T2, ALK2 (Homo sapiens, UniProt Q04771); assay: ALK2 (nM), Table 15; format: biochemical
T2 sequence (Q04771 147-509 limits assumed): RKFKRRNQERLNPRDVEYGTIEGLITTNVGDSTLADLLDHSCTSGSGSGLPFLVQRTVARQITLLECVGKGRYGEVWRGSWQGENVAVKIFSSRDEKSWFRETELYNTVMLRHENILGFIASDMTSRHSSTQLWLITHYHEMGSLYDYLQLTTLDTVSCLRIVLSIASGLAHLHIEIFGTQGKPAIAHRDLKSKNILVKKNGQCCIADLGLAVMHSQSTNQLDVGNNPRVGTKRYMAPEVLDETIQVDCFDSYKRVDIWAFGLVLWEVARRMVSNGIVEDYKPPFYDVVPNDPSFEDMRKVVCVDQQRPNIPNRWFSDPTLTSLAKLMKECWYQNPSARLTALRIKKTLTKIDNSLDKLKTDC

[6] = biological target: T3, BMPR2 (Homo sapiens, UniProt Q13873); assay: LanthaScreen Eu kinase binding assay, BMP type II receptor BMPR2; settings: 10-point titration from 10 μM, 3-fold serial dilution, Life Technologies
T3 sequence (Q13873 27-1038): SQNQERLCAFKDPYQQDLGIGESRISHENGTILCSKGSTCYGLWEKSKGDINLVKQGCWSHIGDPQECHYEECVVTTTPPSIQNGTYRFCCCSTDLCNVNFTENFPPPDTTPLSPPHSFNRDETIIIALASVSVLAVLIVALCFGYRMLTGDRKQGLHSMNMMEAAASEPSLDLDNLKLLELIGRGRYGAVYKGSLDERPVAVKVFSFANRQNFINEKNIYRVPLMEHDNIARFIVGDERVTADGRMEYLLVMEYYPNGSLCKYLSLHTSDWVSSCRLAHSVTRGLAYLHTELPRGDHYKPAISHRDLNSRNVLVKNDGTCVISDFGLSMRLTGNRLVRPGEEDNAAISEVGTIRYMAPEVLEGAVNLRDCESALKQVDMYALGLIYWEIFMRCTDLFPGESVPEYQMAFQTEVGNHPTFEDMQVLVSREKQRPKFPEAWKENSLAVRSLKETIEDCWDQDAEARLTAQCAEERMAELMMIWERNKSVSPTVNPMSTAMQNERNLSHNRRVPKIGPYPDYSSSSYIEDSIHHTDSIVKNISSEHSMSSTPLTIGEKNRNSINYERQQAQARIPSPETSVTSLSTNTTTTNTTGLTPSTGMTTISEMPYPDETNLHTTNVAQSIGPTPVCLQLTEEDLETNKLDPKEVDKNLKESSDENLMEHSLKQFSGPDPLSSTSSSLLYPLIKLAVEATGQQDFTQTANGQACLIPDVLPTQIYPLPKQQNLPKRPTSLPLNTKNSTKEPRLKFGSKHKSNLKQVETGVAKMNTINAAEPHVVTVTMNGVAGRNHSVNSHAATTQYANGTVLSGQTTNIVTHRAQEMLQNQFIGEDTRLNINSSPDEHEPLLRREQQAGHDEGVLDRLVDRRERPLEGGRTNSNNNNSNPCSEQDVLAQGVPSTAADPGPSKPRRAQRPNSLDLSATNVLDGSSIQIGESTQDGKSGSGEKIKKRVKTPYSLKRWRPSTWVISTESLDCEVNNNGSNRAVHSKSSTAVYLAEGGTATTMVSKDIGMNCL
Method: as §2, §3

[7] = system: BMP6; assay: Cell assay HTRF BMP6 (Table 15); format: cell-based
[8] = biological target: ACVR2A (Homo sapiens, UniProt P27037); assay: LanthaScreen Eu kinase binding assay, BMP type II receptor ACVR2A; settings: 10-point titration from 10 μM, 3-fold serial dilution, Life Technologies
Text: (§4) For the detailed description of LanthaScreen™ Eu kinase binding assay condition, please see: https://www.thermofisher.com/us/en/home/industrial/pharma-biopharma/drug-discovery-development/target-and-lead-identification-and-validation/kinasebiology/kinase-activity-assays/lanthascreentm-eu-kinas e-binding-assay/lanthascreen-eu-kinase-binding-assay-validation-table.html.

[9] = biological target: TGFβR2 (Homo sapiens, UniProt P37173); assay: LanthaScreen Eu kinase binding assay, BMP type II receptor TGFbR2; settings: 10-point titration from 10 μM, 3-fold serial dilution, Life Technologies
Text: as §4

Chain of TGFβR2 (P37173 23-567): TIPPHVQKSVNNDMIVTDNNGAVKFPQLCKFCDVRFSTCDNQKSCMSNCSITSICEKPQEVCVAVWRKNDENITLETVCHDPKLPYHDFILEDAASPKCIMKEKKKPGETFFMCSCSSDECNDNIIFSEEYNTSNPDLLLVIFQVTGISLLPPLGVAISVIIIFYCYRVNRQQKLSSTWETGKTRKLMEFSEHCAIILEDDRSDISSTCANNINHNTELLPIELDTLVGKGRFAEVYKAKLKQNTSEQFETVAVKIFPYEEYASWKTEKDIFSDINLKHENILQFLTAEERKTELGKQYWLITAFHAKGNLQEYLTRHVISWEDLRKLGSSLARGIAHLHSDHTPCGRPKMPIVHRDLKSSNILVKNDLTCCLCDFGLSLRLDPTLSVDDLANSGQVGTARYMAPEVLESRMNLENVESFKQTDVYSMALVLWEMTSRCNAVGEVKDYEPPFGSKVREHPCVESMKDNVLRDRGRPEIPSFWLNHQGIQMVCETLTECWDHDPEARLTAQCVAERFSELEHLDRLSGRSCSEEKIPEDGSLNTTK
Chain of ACVR2B (Q13705 19-512): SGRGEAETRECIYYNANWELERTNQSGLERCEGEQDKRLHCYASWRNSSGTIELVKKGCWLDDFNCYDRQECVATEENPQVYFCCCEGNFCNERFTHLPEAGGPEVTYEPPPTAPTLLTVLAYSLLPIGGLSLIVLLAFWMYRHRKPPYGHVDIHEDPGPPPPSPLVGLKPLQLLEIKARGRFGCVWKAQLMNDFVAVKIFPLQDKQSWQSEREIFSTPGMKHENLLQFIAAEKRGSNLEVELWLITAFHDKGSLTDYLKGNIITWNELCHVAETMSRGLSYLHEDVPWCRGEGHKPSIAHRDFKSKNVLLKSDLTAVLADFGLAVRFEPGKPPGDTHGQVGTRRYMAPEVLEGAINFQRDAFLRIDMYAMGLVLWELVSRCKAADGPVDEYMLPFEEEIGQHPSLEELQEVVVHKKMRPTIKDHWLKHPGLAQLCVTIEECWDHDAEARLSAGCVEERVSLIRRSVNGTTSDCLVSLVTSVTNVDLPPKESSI
Chain of ACVR2A (P27037 20-513): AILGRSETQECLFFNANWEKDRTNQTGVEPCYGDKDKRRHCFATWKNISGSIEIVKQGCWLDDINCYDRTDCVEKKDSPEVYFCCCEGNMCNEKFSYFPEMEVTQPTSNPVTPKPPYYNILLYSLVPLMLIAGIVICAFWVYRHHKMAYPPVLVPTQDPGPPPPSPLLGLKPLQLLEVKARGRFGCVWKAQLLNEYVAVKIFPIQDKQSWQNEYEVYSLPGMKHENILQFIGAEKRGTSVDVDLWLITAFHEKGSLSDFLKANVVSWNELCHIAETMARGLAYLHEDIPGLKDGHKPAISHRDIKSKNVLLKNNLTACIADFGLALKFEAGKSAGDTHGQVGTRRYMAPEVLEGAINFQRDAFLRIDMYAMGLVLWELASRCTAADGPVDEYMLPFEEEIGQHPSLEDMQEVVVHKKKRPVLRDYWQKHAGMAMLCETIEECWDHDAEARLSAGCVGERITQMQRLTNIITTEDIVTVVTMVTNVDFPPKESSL

Row | IC50 [2] | IC50 ([3]; Homo sapiens, HEK-293T) | Compound | other results
1 | 25 nM | 33 nM | c1ccc2c(-c3cnn4cc(N5CCNCC5)cnc34)ccnc2c1 [Compound 80] | IC50 [1]: 5790 nM; IC50 [4]: 3610 nM; IC50 [5]: 93 nM; IC50 [6]: ≥ 10000 nM; IC50 [7]: 250 nM; IC50 [8]: 3710 nM; IC50 [9]: 194 nM
2 | – | – | c1ccc2c(-c3cnn4cc(N5CCN(C6CCNCC6)CC5)cnc34)ccnc2c1 [Compound 79] | IC50 [1]: 4610 nM; IC50 [4]: 1280 nM; IC50 [5]: 110 nM; IC50 [6]: > 10000 nM; IC50 [7]: 97.4 nM; IC50 [8]: 851 nM; IC50 [9]: 71.3 nM
3 | 46 nM | 505 nM | COc1cc2c(-c3cnn4cc(N5CCC(N6CCN(C)CC6)CC5)ccc34)ccnc2cc1F [Compound 230] | –
4 | 221 nM | 138 nM | Cc1cc(-c2cnn3cc(N4CC(N5CCOCC5)C4)cnc23)c2ccccc2n1 [Compound 194] | –
5 | 18 nM | 383 nM | CN1CCN(C2CCN(c3cnc4c(-c5ccnc6cc(F)c(N)cc56)cnn4c3)CC2)CC1 [Compound 264] | –
6 | 104 nM | 685 nM | COc1ccc2nccc(-c3cnn4cc(N5CCC(N6CCCN(C)CC6)CC5)cnc34)c2c1 [Compound 208] | –
7 | 356 nM | 817 nM | COc1cc2c(-c3cnn4cc(N5CCC(N6CCN(C)CC(F)(F)C6)CC5)cnc34)ccnc2cc1F [Compound 206] | –
8 | 30 nM | 328 nM | CN1CCN(C2CCN(c3cnc4c(-c5ccnc6cc(Cl)ccc56)cnn4c3)CC2)CC1 [Compound 244] | –
9 | > 3000 nM | > 3000 nM | NC(=O)c1cccc2c(-c3cnn4cc(N5CCN(C6CCNCC6)CC5)cnc34)cccc12 [Compound 4] | –
10 | > 1000 nM | > 3000 nM | CN1CCN(C2CCN(c3cnc4c(-c5ccncc5)cnn4c3)CC2)CC1 [Compound 277] | –
11 | 24 nM | – | COc1cc2c(-c3cnn4cc(N5CCC6(CC5)CN(C)C6)cnc34)ccnc2cc1F [Compound 216] | IC50 [3]: 44 nM
12 | 85 nM | 12 nM | CN1CCN(C2CCN(c3cnc4c(-c5ccnc6ccc(OC(F)(F)F)cc56)cnn4c3)CC2)CC1 [Compound 252] | –
13 | 32 nM | 321 nM | COc1cc(-c2cnn3cc(N4CCC(N5CCN(C)CC5)CC4)cnc23)cc(OC)c1OC [Compound 274] | –
14 | > 1000 nM | > 1000 nM | COc1cc2c(-c3c(N)nn4cc(N5CCC(N6CCN(C)CC6)CC5)cnc34)ccnc2cc1F [Compound 214, 3-(7-fluoro-6-methoxy-4-quinolyl)-6-[4-(4-methylpiperazin-1-yl)-1-piperidyl]pyrazolo[1,5-a]pyrimidin-2-amine] | –
15 | 72 nM | 248 nM | COc1cc2c(-c3cnn4cc(N5CCC(N6CCN(C)CC6)CC5)cnc34)ccnc2cc1Cl [Compound 28] | –
16 | > 1000 nM | > 1000 nM | CN1CCN(C2CCN(c3cnc4c(-c5ccnc6cc(C(F)(F)F)ccc56)cnn4c3)CC2)CC1 [Compound 257] | –
17 | 22 nM | 514 nM | Cc1ccc2nccc(-c3cnn4cc(N5CCC(N6CCN(C)CC6)CC5)cnc34)c2c1 [Compound 185] | –
18 | 681 nM | 271 nM | COc1cc2nccc(-c3cnn4cc(N5CCC(N6CCN(C)CC6)CC5)cnc34)c2cc1OC [Compound 17] | –
19 | > 1000 nM | > 3000 nM | CN1CCN(C2CN(c3cnc4c(N5CCN(C(=O)C6CC6)CC5)cnn4c3)C2)CC1 [Compound 339] | –
20 | 41 nM | 76 nM | CN1CCN(C2CCN(c3cnc4c(-c5cccc6c(C(N)=O)cccc56)cnn4c3)CC2)CC1 [Compound 10] | –
21 | 295 nM | 424 nM | CN1CCN(C2CCN(c3cnc4c(-c5ccnc6cc(C#N)ccc56)cnn4c3)CC2)CC1 [Compound 263] | –
22 | 31 nM | 128 nM | COc1cc2c(-c3cnn4cc(N5CCC(N6CCC(N(C)C)C6)CC5)cnc34)ccnc2cc1F (stereo not shown) [Compound 190] | –
23 | 10 nM | 104 nM | CN1CCN(C2CCN(c3cnc4c(-c5ccnc6cc(F)ccc56)cnn4c3)CC2)CC1 [Compound 256] | –
